Reference: patent US20230373974A1, “MODULATORS OF CYSTIC FIBROSIS TRANSMEMBRANE CONDUCTANCE REGULATOR” (VERTEX PHARMACEUTICALS INCORPORATED, priority 2020, published 2023)

Biological target: T1, F508del in NIH 3T3 cells (Homo sapiens, UniProt P13569, DEL508-508)
T1 construct: expressed in transfected cells
Assay: 3T3 assay: membrane potential optical assay for F508del correction
Assay type: cell-based, mouse
Conditions: F508del NIH 3T3 cells; for Emax: NIH3T3, efficacy compared to lumacaftor in combination with acutely added 300 nM Ivacaftor, read-out: 3T3 Max Activity (%); for EC50: incubated with compound 18-24 hours at 37° C., forskolin activation
Source text: Membrane Potential Optical Methods for Assaying F508del Modulation Properties of Compounds The assay utilizes fluorescent voltage sensing dyes to measure changes in membrane potential using a fluorescent plate reader (e.g., FLIPR III, Molecular Devices, Inc.) as a readout for increase in functional F508del in NIH 3T3 cells. The driving force for the response is the creation of a chloride ion gradient in conjunction with channel activation by a single liquid addition step after the cells have previously been treated with compounds and subsequently loaded with a voltage sensing dye. 2. Identification of Corrector Compounds To identify correctors of F508del, a single-addition HTS assay format was developed. This HTS assay utilizes fluorescent voltage sensing dyes to measure changes in membrane potential on the FLIPR III as a measurement for increase in gating (conductance) of F508del in F508del NIH 3T3 cells. The F508del NIH 3T3 cell cultures were incubated with the corrector compounds at a range of concentrations for 18-24 hours at 37° C., and subsequently loaded with a redistribution dye. The driving force for the response is a Cl^− ion gradient in conjunction with channel activation with forskolin in a single liquid addition step using a fluorescent plate reader such as FLIPR III. […] Solutions […] Chloride-free bath solution: Chloride salts in Bath Solution #1 (above) are substituted with gluconate salts. 4. Cell Culture NIH3T3 mouse fibroblasts stably expressing F508del are used for optical measurements of membrane potential. The cells are maintained at 37° C. in 5% CO2 and 90% humidity in Dulbecco's modified Eagle's medium supplemented with 2 mM glutamine, 10% fetal bovine serum, 1×NEAA, b-ME, 1×pen/strep, and 25 mM HEPES in 175 cm^2 culture flasks. For all optical assays, the cells were seeded at ˜20,000/well in 384-well Matrigel-coated plates. For the correction assays, the cells are cultured at 37° C. with and without compounds for 16-24 hours.

T1 sequence (P13569 with tags, fused parts or gaps DEL508-508): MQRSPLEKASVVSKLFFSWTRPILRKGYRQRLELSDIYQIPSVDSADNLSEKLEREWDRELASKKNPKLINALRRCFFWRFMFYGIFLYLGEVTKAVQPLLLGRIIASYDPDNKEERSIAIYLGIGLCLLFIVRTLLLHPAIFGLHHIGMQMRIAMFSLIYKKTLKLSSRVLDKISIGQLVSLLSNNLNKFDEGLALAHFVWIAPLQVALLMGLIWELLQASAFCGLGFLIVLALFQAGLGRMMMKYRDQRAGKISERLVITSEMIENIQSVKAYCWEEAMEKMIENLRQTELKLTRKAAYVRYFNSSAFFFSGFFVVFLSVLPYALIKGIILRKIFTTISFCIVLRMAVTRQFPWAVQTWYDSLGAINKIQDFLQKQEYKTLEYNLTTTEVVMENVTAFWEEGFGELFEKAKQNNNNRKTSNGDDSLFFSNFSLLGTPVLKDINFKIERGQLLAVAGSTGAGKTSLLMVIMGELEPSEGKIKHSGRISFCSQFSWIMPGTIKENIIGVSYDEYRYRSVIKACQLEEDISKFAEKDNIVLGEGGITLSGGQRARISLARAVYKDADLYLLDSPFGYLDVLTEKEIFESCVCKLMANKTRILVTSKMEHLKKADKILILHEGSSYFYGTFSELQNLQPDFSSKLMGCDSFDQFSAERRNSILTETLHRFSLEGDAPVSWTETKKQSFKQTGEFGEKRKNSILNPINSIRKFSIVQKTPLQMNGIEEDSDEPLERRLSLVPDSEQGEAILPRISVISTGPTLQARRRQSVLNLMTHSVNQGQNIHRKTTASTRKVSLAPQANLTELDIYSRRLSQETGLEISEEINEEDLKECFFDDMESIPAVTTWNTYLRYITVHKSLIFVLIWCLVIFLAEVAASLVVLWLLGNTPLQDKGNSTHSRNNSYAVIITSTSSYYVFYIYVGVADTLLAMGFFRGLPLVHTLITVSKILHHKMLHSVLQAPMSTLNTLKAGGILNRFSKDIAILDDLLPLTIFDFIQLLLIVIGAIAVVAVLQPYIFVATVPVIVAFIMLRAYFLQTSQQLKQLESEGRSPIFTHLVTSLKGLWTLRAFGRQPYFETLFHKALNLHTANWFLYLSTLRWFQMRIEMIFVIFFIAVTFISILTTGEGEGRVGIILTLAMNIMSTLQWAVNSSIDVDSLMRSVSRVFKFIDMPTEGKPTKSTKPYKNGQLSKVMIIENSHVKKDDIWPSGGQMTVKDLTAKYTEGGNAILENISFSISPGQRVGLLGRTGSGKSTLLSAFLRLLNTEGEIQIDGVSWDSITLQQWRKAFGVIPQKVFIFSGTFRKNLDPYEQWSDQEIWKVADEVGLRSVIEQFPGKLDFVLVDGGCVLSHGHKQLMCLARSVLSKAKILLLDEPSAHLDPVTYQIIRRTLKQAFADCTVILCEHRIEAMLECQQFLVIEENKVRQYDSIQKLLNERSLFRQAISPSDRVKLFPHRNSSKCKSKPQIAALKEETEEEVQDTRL

| Structure (SMILES) | Emax | EC50 |
| --- | --- | --- |
| O=S(=O)(Nc1nc(Oc2ccccc2)nc2ccccc12)c1ccccc1 [Compound 16] | < 30% |  |
| CC(C)n1nc(NS(=O)(=O)c2ccccc2)c2ccc(C(C)(C)C)nc21 [Compound 39, N-(6-tert-butyl-1-isopropyl-pyrazolo[3,4-b]pyridin-3-yl)benzenesulfonamide] |  | 1 to 3 µM |
| Cc1cc(C)cc(-c2cc(NS(=O)(=O)c3ccccc3)nc3ccccc23)c1 [Compound 78, N-[4-(3,5-Dimethylphenyl)-2-quinolyl]benzenesulfonamide] | < 30% |  |
| CC1CCc2nc(NS(=O)(=O)c3ccccc3)sc2C1 (stereo not drawn) [Compound 24] | < 30% |  |
| O=S(=O)(Nc1ccc2cc[nH]c2n1)c1ccccc1 [Compound 82] | < 30% |  |
| O=S(=O)(Nc1nc2c(s1)CCc1ccccc1-2)c1ccccc1 [Compound 26] | 30 to 60% | 1 to 3 µM |
| CC(C)(C)c1ccc2c(NS(=O)(=O)c3ccccc3)nn(-c3cccc(Cl)c3)c2n1 [Compound 38, N-[6-tert-butyl-1-(3-chlorophenyl)pyrazolo[3,4-b]pyridin-3-yl]benzenesulfonamide] | 30 to 60% | < 1 µM |
| CC(C)(C)c1ccc2nc(NS(=O)(=O)c3ccccc3)[nH]c2c1 [Compound 93] | < 30% |  |
| CC(C)N1CCc2nc(NS(=O)(=O)c3ccccc3)sc2C1 [Compound 22] | < 30% |  |
| Cc1cc(C)c(-n2nc(NS(=O)(=O)c3ccccc3)c3cccnc32)c(C)c1 [Compound 52] | 30 to 60% |  |
| Cc1ccccc1Oc1nc(NS(=O)(=O)c2cnn(C)c2)nc2c1CCc1ccccc1-2 [Compound 7] | > 60% | < 1 µM |
| CC(C)(C)c1ccc2c(NS(=O)(=O)c3ccccc3)nn(-c3ccccc3)c2n1 [Compound 40] | 30 to 60% | < 1 µM |
| Cc1cc(C)c(-n2nc(NS(=O)(=O)c3cccc(N)c3)c3ccc(C(C)(C)C)nc32)c(C)c1 [Compound 61] | 30 to 60% | < 1 µM |
| Cc1cc(C)cc(-n2c(NS(=O)(=O)c3ccccc3)nc3cc(C(C)(C)C)ccc32)c1 [Compound 91] | < 30% |  |
| Cc1cc(NS(=O)(=O)c2ccccc2)nc2ccccc12 [Compound 81] | < 30% |  |
| Cc1cc(C)c(-n2nc(NS(=O)(=O)c3ccc(Cl)cc3)c3ccc(C(C)(C)C)nc32)c(C)c1 [Compound 65] | < 30% |  |
| Cc1cccc(S(=O)(=O)Nc2nn(-c3c(C)cc(C)cc3C)c3nc(C(C)(C)C)ccc23)c1 [Compound 63] | < 30% |  |
| Cc1cc(C)cc(-n2nc(NS(=O)(=O)c3ccccc3)c3cc(Br)cnc32)c1 [Compound 48] | 30 to 60% | < 1 µM |
| COc1ccccc1S(=O)(=O)Nc1nn(-c2c(C)cc(C)cc2C)c2nc(C(C)(C)C)ccc12 [Compound 59] | 30 to 60% | 1 to 3 µM |
| Cc1ccccc1Oc1nc(NS(=O)(=O)c2cnn(C)c2)nc2c1CC(C)(C)CC2 [Compound 3, N-[6,6-Dimethyl-4-(2-methylphenoxy)-7,8-dihydro-5H-quinazolin-2-yl]-1-methyl-pyrazole-4-sulfonamide] | > 60% | 1 to 3 µM |
| Cc1ccccc1Oc1nc(NS(=O)(=O)c2cnn(C)c2)nc2c1CCC(C)(C)C2 [Compound 2, N-[7,7-Dimethyl-4-(2-methylphenoxy)-6,8-dihydro-5H-quinazolin-2-yl]-1-methyl-pyrazole-4-sulfonamide] | > 60% | 1 to 3 µM |
| COc1ccc(N)cc1S(=O)(=O)Nc1nn(-c2c(C)cc(C)cc2C)c2nc(C(C)(C)C)ccc12 [Compound 55] | 30 to 60% | 3 to 30 µM |
| Cc1cc(C)c(-n2nc(NS(=O)(=O)c3ccc(N)cc3)c3ccc(C(C)(C)C)nc32)c(C)c1 [Compound 36, 4-Amino-N-[6-tert-butyl-1-(2,4,6-trimethylphenyl)pyrazolo[3,4-b]pyridin-3-yl]benzenesulfonamide] |  | 1 to 3 µM |
| O=S(=O)(Nc1nc2c(s1)Cc1ccccc1-2)c1ccccc1 [Compound 27] | 30 to 60% | 3 to 30 µM |
| Cc1cc(C)c(-n2nc(NS(=O)(=O)c3cccc(N)n3)c3ccc(C(C)(C)C)nc32)c(C)c1 [Compound 42] | 30 to 60% | 1 to 3 µM |
| CC(C)(C)C1CCc2nc(NS(=O)(=O)c3ccccc3)sc2C1 (stereo not drawn) [Compound 25] | 30 to 60% | 1 to 3 µM |

| Structure (SMILES) | Emax | EC50 |
| --- | --- | --- |
| CC(C)(O)C1CCc2nc(NS(=O)(=O)c3ccccc3)sc2C1 (stereo not drawn) [Compound 21] | < 30% |  |
| CC(C)(C)c1ccc2c(NS(=O)(=O)c3ccccc3)cn(-c3cccc(Cl)c3)c2n1 [Compound 87] | < 30% |  |
| O=S(=O)(Nc1nc2ccccc2nc1N1CCCCC1)c1ccccc1 [Compound 12, N-[3-(1-piperidyl)quinoxalin-2-yl]benzenesulfonamide] | 30 to 60% | 3 to 30 µM |
| O=S(=O)(Nc1nc2c(c(Oc3ccccc3)n1)CCCC2)c1ccccc1 [Compound 4, N-(4-phenoxy-5,6,7,8-tetrahydroquinazolin-2-yl)benzenesulfonamide] | > 60% | 3 to 30 µM |
| O=S(=O)(Nc1nc2c(s1)-c1ccccc1CC2)c1ccccc1 [Compound 20, N-(4,5-Dihydrobenzo[g][1,3]benzothiazol-2-yl) benzenesulfonamide] |  | 3 to 30 µM |
| Cc1cc(C)c(-n2nc(NS(=O)(=O)c3cccc(N(C)C)c3)c3ccc(C(C)(C)C)nc32)c(C)c1 [Compound 34, N-[6-tert-butyl-1-(2,4,6-trimethylphenyl)pyrazolo[3,4-b]pyridin-3-yl]-3-(dimethylamino)benzenesulfonamide] | > 60% | < 1 µM |
| CC(C)CCn1nc(NS(=O)(=O)c2ccccc2)c2ccc(C(C)(C)C)nc21 [Compound 41] | < 30% |  |
| CC(C)(C)c1ccccc1Oc1nc2ccccc2nc1NS(=O)(=O)c1ccccc1 [Compound 10, N-[3-(2-tert-butylphenoxy)quinoxalin-2-yl]benzenesulfonamide] |  | < 1 µM |
| Cc1ccccc1-n1cc(NS(=O)(=O)c2ccccc2)c2ccc(C(C)(C)C)nc21 [Compound 89] | < 30% |  |
| Cc1ccccc1Oc1nc2ccccc2nc1NS(=O)(=O)c1ccccc1 [Compound 15] | 30 to 60% | 3 to 30 µM |
| Cc1ccc(S(=O)(=O)Nc2nn(-c3c(C)cc(C)cc3C)c3nc(C(C)(C)C)ccc23)cc1 [Compound 66] | < 30% |  |
| Cc1ccc(-c2nc(NS(=O)(=O)c3ccccc3)c3ccc(C(C)(C)C)nc3n2)c(C)c1 [Compound 18] | < 30% |  |
| Cc1cc(C)cc(-c2nc(NS(=O)(=O)c3ccccc3)nc3nc(C(C)(C)C)ccc23)c1 [Compound 30, N-[7-tert-butyl-4-(3,5-dimethylphenyl)pyrido[2,3-d]pyrimidin-2-yl]benzenesulfonamide] |  | < 1 µM |
| Cc1ccc(-n2nc(NS(=O)(=O)c3ccccc3)c3ccc(C(C)(C)C)nc32)cc1 [Compound 44] | 30 to 60% | < 1 µM |
| O=S(=O)(NC1=Nc2ccccc2C(c2ccccc2)S1)c1ccccc1 (stereo not drawn) [Compound 9, N-(4-phenyl-4H-3,1-benzothiazin-2-yl)benzenesulfonamide] |  | 3 to 30 µM |
| Cc1ccc(-n2nc(NS(=O)(=O)c3ccccc3)c3ccc(C(C)(C)C)nc32)c(C)c1 [Compound 43] | 30 to 60% | < 1 µM |
| Cc1cc(C)cc(-n2nc(NS(=O)(=O)c3ccccc3)c3cc(C(C)C)cnc32)c1 [Compound 46] | 30 to 60% | < 1 µM |
| Cc1ccc(Oc2nc3ccccc3nc2NS(=O)(=O)c2ccccc2)c(C)c1 [Compound 14] | 30 to 60% | 1 to 3 µM |
| COc1ccccc1-n1nc(NS(=O)(=O)c2ccccc2)c2ccc(C(C)(C)C)nc21 [Compound 51] | 30 to 60% | 1 to 3 µM |
| Cc1cc(C)c(Oc2nc3ccccc3nc2NS(=O)(=O)c2ccccc2)c(C)c1 [Compound 13] | 30 to 60% | 1 to 3 µM |
| Cc1cc(C)cc(-c2nc(NS(=O)(=O)c3ccccc3)c3ccc(C(C)(C)C)nc3n2)c1 [Compound 17] | < 30% |  |
| Cc1cc(C)c(-n2nc3nc(C(C)(C)C)ccc3c2NS(=O)(=O)c2ccccc2)c(C)c1 [Compound 71] | < 30% |  |
| Cc1ccccc1-n1nc(NS(=O)(=O)c2ccccc2)c2ccc(C(C)C)cc21 [Compound 73, N-[6-isopropyl-1-(o-tolyl)indazol-3-yl]benzenesulfonamide] | 30 to 60% | 1 to 3 µM |
| Cc1cc(C)c(Oc2nc(NS(=O)(=O)c3ccccc3)c3ccc(C(C)(C)C)nc3n2)c(C)c1 [Compound 19] | < 30% |  |
| COc1cccc(S(=O)(=O)Nc2nn(-c3c(C)cc(C)cc3C)c3nc(C(C)(C)C)ccc23)c1 [Compound 60] | 30 to 60% | < 1 µM |
| C=C(C)c1cnc2c(c1)c(NS(=O)(=O)c1ccccc1)nn2-c1cc(C)cc(C)c1 [Compound 47] | 30 to 60% | < 1 µM |
